pIC50: −log10 of the molar value.
Assays:
[1] = target: T1, human VR1 (Homo sapiens, UniProt Q8NER1); experiment: Capsaicin-induced Ca2+ influx in the human VR1-transfected CHO cell line (Assay 1); type: cell-based; conditions: human VR1-CHOluc9aeq cells, stimulation with 10 nM capsaicin, Fluo-3 AM / FDSS-3000; compounds of purity about 40 to 90%; read-out: Activity Class (IC50 of capsaicin-induced Ca2+ influx)
T1 construct: expressed in transfected cells
From the text: [Measurement of Capsaicin-Induced Ca^2+ Influx in the Human VR1-Transfected CHO Cell Line] (Assay 1)
(1) Establishment of the Human VR1-CHOluc9aeq Cell Line
Human vanilloid receptor (hVR1) cDNA was cloned from libraries of axotomized dorsal root ganglia (WO 00/29577). The cloned hVR1 cDNA was constructed with pcDNA3 vector and transfected into a CHOluc9aeq cell line. The cell line contains aequorin and CRE-luciferase reporter genes as read-out signals. The transfectants were cloned by limiting dilution in selection medium (DMEM/F12 medium (Gibco BRL) supplemented with 10% FCS, 1.4 mM Sodium pyruvate, 20 mM HEPES, 0.15% Sodium bicarbonate, 100 U/ml penicillin, 100 μg/ml streptomycin, 2 mM glutamine, non-essential amino acids and 2 mg/ml G418). Ca^2+ influx was examined in the capsaicin-stimulated clones. A high responder clone was selected and used for further experiments in the project. The human VR1-CHOluc9aeq cells were maintained in the selection medium and passaged every 3-4 days at 1−2.5×10^5 cells/flask ([…]).
(2) Measurement of Ca^2+ influx using FDSS-3000
Human VR1-CHOluc9aeq cells were suspended in a culture medium which is the same as the selection medium except for G418 and seeded at a density of 1,000 cells per well into 384-well plates (black walled clear-base/Nalge Nunc International). Following the culture for 48 hrs the medium was changed to 2 μM Fluo-3 AM (Molecular Probes) and 0.02% Puronic F-127 in assay buffer (Hank's balanced salt solution (HBSS), 17 mM HEPES (pH7.4), 1 mM Probenecid, 0.1% BSA) and the cells were incubated for 60 min at 25° C. After washing twice with assay buffer the cells were incubated with a test compound or vehicle for 20 min at 25° C. Mobilization of cytoplasmic Ca^2+ was measured by FDSS-3000 (λex=488 nm, λem=540 nm/Hamamatsu Photonics) for 60 sec after the stimulation with 10 nM capsaicin. Integral R was calculated and compared with controls.
The data corresponds to the compounds as yielded by solid phase synthesis and thus to levels of purity of about 40 to 90%. For practical reasons, the compounds are grouped in four classes of activity as follows: IC50=A (< or =) 0.1 μM<B (< or =) 0.5 μM<C (< or =) 1 μM<D

T1 sequence (Q8NER1 whole entry): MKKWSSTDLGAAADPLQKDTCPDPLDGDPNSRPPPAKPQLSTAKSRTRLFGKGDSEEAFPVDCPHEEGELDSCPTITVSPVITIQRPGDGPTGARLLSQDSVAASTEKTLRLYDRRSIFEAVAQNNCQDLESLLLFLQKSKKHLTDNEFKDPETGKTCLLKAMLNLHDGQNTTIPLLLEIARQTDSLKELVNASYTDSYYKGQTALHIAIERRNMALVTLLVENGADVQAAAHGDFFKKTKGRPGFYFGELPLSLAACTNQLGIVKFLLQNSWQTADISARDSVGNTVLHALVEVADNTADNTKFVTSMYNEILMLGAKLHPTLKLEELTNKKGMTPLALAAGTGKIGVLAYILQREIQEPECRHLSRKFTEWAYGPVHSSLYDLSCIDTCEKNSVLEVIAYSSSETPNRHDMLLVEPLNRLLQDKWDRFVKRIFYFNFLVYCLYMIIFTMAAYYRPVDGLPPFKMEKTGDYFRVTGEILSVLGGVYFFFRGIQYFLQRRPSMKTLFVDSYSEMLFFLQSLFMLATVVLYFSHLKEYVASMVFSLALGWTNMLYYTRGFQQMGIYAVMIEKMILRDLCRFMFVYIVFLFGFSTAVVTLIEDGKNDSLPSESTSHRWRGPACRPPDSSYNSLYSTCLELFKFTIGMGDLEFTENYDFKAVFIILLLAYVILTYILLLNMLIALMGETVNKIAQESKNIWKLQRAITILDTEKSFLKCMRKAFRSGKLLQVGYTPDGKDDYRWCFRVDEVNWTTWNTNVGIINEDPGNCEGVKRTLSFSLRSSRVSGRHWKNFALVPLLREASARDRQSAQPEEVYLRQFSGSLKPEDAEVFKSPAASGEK

| Compound | melting point | pIC50 [1] |
| --- | --- | --- |
| O=C(NCc1ccc(-c2cccc([N+](=O)[O-])c2)cc1)Nc1cccc2c1CC(O)CC2 (stereo not shown) [Example 1-54] | 206 to 207 °C | > 7.00 |
| O=C(NCc1cccc(-c2ccc(F)cc2)c1)Nc1cccc2c1CC(O)CC2 (stereo not shown) [Example 1-55] | 194 to 195 °C | > 7.00 |
| O=C(NCc1cccc(-c2cccc(OC(F)(F)F)c2)c1)Nc1cccc2c1CC(O)CC2 (stereo not shown) [Example 1-56] | 175 to 176 °C | > 7.00 |
| CN(C)c1ccc(-c2cccc(CNC(=O)Nc3cccc4c3CC(O)CC4)c2)cc1 (stereo not shown) [Example 1-57] | 207 to 208 °C | > 7.00 |
| O=C(NCc1cccc(-c2ccc(OC(F)(F)F)cc2)c1)Nc1cccc2c1CC(O)CC2 (stereo not shown) [Example 1-58] | 188 to 189 °C | > 7.00 |
| O=C(NCc1cccc(-c2cc(C(F)(F)F)cc(C(F)(F)F)c2)c1)Nc1cccc2c1CC(O)CC2 (stereo not shown) [Example 1-59] | 208 to 209 °C | > 7.00 |
| COc1ccc(OC)c(-c2cccc(CNC(=O)Nc3cccc4c3CC(O)CC4)c2)c1 (stereo not shown) [Example 1-60] | 123 to 124 °C | > 7.00 |
| COc1ccccc1-c1cccc(CNC(=O)Nc2cccc3c2CC(O)CC3)c1 (stereo not shown) [Example 1-61] | 129 to 130 °C | > 7.00 |
| COc1ccc(-c2cccc(CNC(=O)Nc3cccc4c3CC(O)CC4)c2)cc1OC (stereo not shown) [Example 1-62] | 223 to 224 °C | > 7.00 |
| O=C(NCc1cccc(-c2cccc([N+](=O)[O-])c2)c1)Nc1cccc2c1CC(O)CC2 (stereo not shown) [Example 1-63] | 191 to 192 °C | > 7.00 |
| O=C(NCc1cccc(-c2ccc(F)cc2F)c1)Nc1cccc2c1CC(O)CC2 (stereo not shown) [Example 1-64] | 197 to 198 °C | > 7.00 |
| O=C(NCc1cccc(-c2ccc(F)c(F)c2)c1)Nc1cccc2c1CC(O)CC2 (stereo not shown) [Example 1-65] | 188 to 189 °C | > 7.00 |
| O=C(NCc1cccc(-c2ccccc2F)c1)Nc1cccc2c1CC(O)CC2 (stereo not shown) [Example 1-66] | 197 to 198 °C | > 7.00 |
| Cc1cc(C)cc(-c2cccc(CNC(=O)Nc3cccc4c3CC(O)CC4)c2)c1 (stereo not shown) [Example 1-67] | 197 to 198 °C | > 7.00 |
| CSc1ccc(-c2cccc(CNC(=O)Nc3cccc4c3CC(O)CC4)c2)cc1 (stereo not shown) [Example 1-68] | 195 to 196 °C | > 7.00 |
| O=C(NCc1cccc(-c2c(F)cccc2F)c1)Nc1cccc2c1CC(O)CC2 (stereo not shown) [Example 1-69] | 141 to 142 °C | > 7.00 |
| CC(C)c1ccc(-c2cccc(CNC(=O)Nc3cccc4c3CC(O)CC4)c2)cc1 (stereo not shown) [Example 1-70] | 202 to 203 °C | > 7.00 |
| O=C(NCc1cccc(-c2ccc(F)c(Cl)c2)c1)Nc1cccc2c1CC(O)CC2 (stereo not shown) [Example 1-71] | 188 to 189 °C | > 7.00 |
| O=C(NCc1cccc(-c2ccc(Cl)cc2Cl)c1)Nc1cccc2c1CC(O)CC2 (stereo not shown) [Example 1-72] | 152 to 153 °C | > 7.00 |
| COc1ccc(-c2cccc(CNC(=O)Nc3cccc4c3CC(O)CC4)c2)cc1 (stereo not shown) [Example 1-73] | 188 to 189 °C | > 7.00 |
| C[S+]([O-])c1ccc(-c2cccc(CNC(=O)Nc3cccc4c3CC(O)CC4)c2)cc1 (stereo not shown) [Example 1-74] | 110 to 112 °C | > 7.00 |
| O=C(Nc1cccc(-c2cccc3ccccc23)c1)Nc1cccc2c1CC(O)CC2 (stereo not shown) [Example 1-75] | 223 °C | > 7.00 |
| CSc1ccc(-c2cc(CNC(=O)Nc3cccc4c3CC(O)CC4)ccc2N2CCCCC2)cc1 (stereo not shown) [Example 1-76] | 113 to 115 °C | > 7.00 |
| O=C(Nc1cccc2c1CC(O)CC2)c1ccc(-c2ccc(F)c(F)c2)cc1 (stereo not shown) [Example 2-1, 3′,4′-Difluoro-N-(7-hydroxy-5,6,7,8-tetrahydronaphthalen-1-yl)biphenyl-4-carboxamide] | 210.4 to 212.7 °C | > 7.00 |
| CN(C)c1ccc(-c2ccc(C(=O)Nc3cccc4c3CC(O)CC4)cc2)cc1 (stereo not shown) [Example 2-2] | 222.1 to 225 °C | > 7.00 |
| COc1ccc(-c2cccc(C(=O)N(C)c3cccc4c3CC(O)CC4)c2)cc1 (stereo not shown) [Example 2-3] | 150 to 151.2 °C | 6.00 to 6.30 |
| O=C(Nc1cccc2c1CC(O)CC2)c1ccc(-c2ccccc2)cc1 (stereo not shown) [Example 2-4] | 215 to 217 °C | > 7.00 |
| COc1ccc(-c2cccc(C(=O)Nc3cccc4c3CC(O)CC4)c2)cc1 (stereo not shown) [Example 2-5] | 193.3 to 196.5 °C | 6.00 to 6.30 |
| O=C(Cc1cccc(-c2ccccc2)c1)Nc1cccc2c1CC(O)CC2 (stereo not shown) [Example 3-1, 2-Biphenyl-3-yl-N-(7-hydroxy-5,6,7,8-tetrahydronaphthalen-1-yl)acetamide] | > 134 °C (dec.) | 6.00 to 6.30 |
